# Results taken from paper PMC7552967, “Anti-Melanoma Activities of Artemisone and Prenylated Amino-Artemisinins in Combination With Known Anticancer Drugs” (Frontiers in Pharmacology, 2020).
# Columns and labels:
# TK10 renal cancer cells = assay: Sulforhodamine B (SRB) growth inhibition assay, TK10; format: cell-based; conditions: Homo sapiens, TK-10, mean ± SD
# Source text: (§1) The human cell lines TK10 (human kidney adenocarcinoma), UACC62 (human melanoma) and MCF7 (human breast adenocarcinoma) were obtained from the National Cancer Institute (NCI) as part of a panel widely studied for drug screening and molecular target identification. Melanoma (A375) and human embryonic kidney (HEK293) were acquired from the American Type Culture Collection; ATCC® CRL-1619™ and ATCC® CRL-1573™ respectively. The nontumorigenic human immortalized keratinocyte (HaCaT) cells were a kind donation by the School of Anatomical Sciences, Faculty of Health Sciences, University of the Witwatersrand, South Africa. […]
# (§2) The growth inhibitory effects of the compounds were tested in the 3-cell line panel consisting of TK10 (renal), UACC62 (melanoma) and MCF7 (breast) cancer cells by Sulforhodamine B (SRB) assay. In addition, activity was also evaluated against HEK293 cells with the 3-(4,5-dimethylthiazol-2-yl)-2,5-diphenyl tetrazolium bromide (MTT) assay ([Mosmann, 1983]). […] The results were expressed as half maximal inhibitory concentrations (IC50) as described before ([Lewies et al., 2018]). […] After incubation, cell viability was determined using a microplate reader (BioTek®, Vermont, USA) at an excitation wavelength of 560 nm and emission wavelength of 630 nm with DMSO measured as a blank. […] Using the MTT assay data, IC50 values were calculated using GraphPad Prism 8. […]
# HEK293 cells = assay: MTT cytotoxicity assay, HEK293; format: cell-based; conditions: Homo sapiens, 24 h exposure, mean ± SD, three biological replicates
# Source text: The human cell lines TK10 (human kidney adenocarcinoma), UACC62 (human melanoma) and MCF7 (human breast adenocarcinoma) were obtained from the National Cancer Institute (NCI) as part of a panel widely studied for drug screening and molecular target identification. Melanoma (A375) and human embryonic kidney (HEK293) were acquired from the American Type Culture Collection; ATCC® CRL-1619™ and ATCC® CRL-1573™ respectively. The nontumorigenic human immortalized keratinocyte (HaCaT) cells were a kind donation by the School of Anatomical Sciences, Faculty of Health Sciences, University of the Witwatersrand, South Africa. HaCaT cells were chosen as the nonmalignant control due to their ease of propagation, near normal phenotype and general use as an A375 control ([Dwivedi et al., 2015]; [Lewies et al., 2018]). The A375 cell line is a […] cells line with the BRAF mutation frequently used for in vitro drug screening assays for anti-melanoma drugs ([Couto et al., 2019]). All reagents were of analytical grade and were obtained from Merck (Darmstadt, Germany) unless stated otherwise. Cells were cultured in Dulbecco’s modified essential medium (DMEM; Hyclone, GE healthcare, South Logan, UT, USA) containing 10% fetal bovine serum (FBS), 1% penicillin/streptomycin, 1% 200 mM L-Glutamine and 1% nonessential amino acids (Lonza, Basel, Switzerland) at 37°C in a humidified atmosphere of 5% CO2. […]
# The growth inhibitory effects of the compounds were tested in the 3-cell line panel consisting of TK10 (renal), UACC62 (melanoma) and MCF7 (breast) cancer cells by Sulforhodamine B (SRB) assay. In addition, activity was also evaluated against HEK293 cells with the 3-(4,5-dimethylthiazol-2-yl)-2,5-diphenyl tetrazolium bromide (MTT) assay ([Mosmann, 1983]). […] The results were expressed as half maximal inhibitory concentrations (IC50) as described before ([Lewies et al., 2018]). […] After incubation, cell viability was determined using a microplate reader (BioTek®, Vermont, USA) at an excitation wavelength of 560 nm and emission wavelength of 630 nm with DMSO measured as a blank. Cell viability was expressed as a percentage relative to the untreated control, which is assumed to be 100% viable. […] Using the MTT assay data, IC50 values were calculated using GraphPad Prism 8. […] The curve was fitted using the log(inhibitor) vs. response function and the IC50 values calculated ([Lewies et al., 2018]). A crude therapeutic index (fold decrease in IC50 value) was calculated as the IC50 of the noncancerous cell-line/IC50 of the cancerous cell line. […] Drug interactions were evaluated for synergism, additivity or antagonism using multiple drug effect analysis, based on the median-principle. Cells were treated with the drug combinations for 24 h and analyzed. […]
# UACC62 melanoma cells = assay: Sulforhodamine B (SRB) growth inhibition assay, UACC62; format: cell-based; conditions: Homo sapiens, UACC-62, mean ± SD
# Source text: as §1, §2
# A375 melanoma cells = assay: Intracellular ROS, DCFH-DA assay, A375; format: cell-based, human; conditions: A375, 12 h treatment; result in words
# Method: HaCat and A375 cells were seeded at 25,000 cells/well in 96-well plates (Black plate, Clear bottom, Corning, Costar®, NY, USA) and incubated until cells were ~90% confluent. Serum-free DMEM without phenol red (Thermo Fisher Scientific, Gibco, Carlsbad, CA, USA) was used for all experiments. Cells were exposed to compounds or H2O2 (500 µM) for 12 h. Cell staining with ROS fluorescent indicator 2’,7’-dichlorodihydrofluorescein diacetate (DCFH-DA) was performed 1.5 h before the end of the 12-h exposure time. A kinetic analysis was then performed at 37°C using a microplate reader (SpectraMax® ParadigmTM Molecular Devices, Sunnyvale, CA, USA) by measuring the DCF fluorescence (excitation 485 nm and emission 535 nm) every 10 min for 1 h. […] The Bradford assay (Coomassie blue colorimetric method) was then performed in order to determine the relative amount of protein per well, as an indication of cell number per well, and all fluorescence measurements were normalized relative to the cell number. The background fluorescence produced by blank medium controls and unstained but treated cell controls were subtracted from DCFH-DA stained cells. The DCF fluorescence measured at the beginning of the analysis (time 0) was subtracted from the DCF fluorescence at the indicated times for the kinetic analysis (results not shown). […]
# The levels of intracellular ROS were determined using the DCFH-DA assay. […]
Structure (SMILES),IC50 (TK10 renal cancer cells) [µM],IC50 (HEK293 cells) [µM],IC50 (UACC62 melanoma cells) [µM],Intracellular ROS (DCF fluorescence fold change vs untreated control) (A375 melanoma cells)
"C[C@H]1[C@H](N2CCS(=O)(=O)CC2)O[C@@H]2O[C@@]3(C)CC[C@H]4[C@H](C)CC[C@@H]1[C@@]24OO3 [Artemisone 4, artemisone]",> 100,86.7 ± 1.09,32.7 ± 3.47,–
"CC(C)=CCC/C(C)=C/CC/C(C)=C/CN1CCN([C@@H]2O[C@@H]3O[C@@]4(C)CC[C@H]5[C@H](C)CC[C@@H]([C@H]2C)[C@@]35OO4)CC1 [Farnesylpiperazine-DHA 7, farnesylpiperazine-DHA]",3 ± 0.67,35.5 ± 1.09,2.15 ± 0.79,not significantly higher than the untreated control
"CC(C)=CCC/C(C)=C/CN1CCN([C@@H]2O[C@@H]3O[C@@]4(C)CC[C@H]5[C@H](C)CC[C@@H]([C@H]2C)[C@@]35OO4)CC1 [Geranylpiperazine-DHA 6, geranylpiperazine-DHA]",–,24.3 ± 1.15,–,not significantly higher when compared to the untreated control
"C[C@@H]1CC[C@H]2[C@@H](C)C(=O)O[C@@H]3O[C@@]4(C)CC[C@@H]1[C@]32OO4 [Artemisinin 2, artemisinin]",–,120.7 ± 1.07,–,–
